# The source made the active and inactive calls. No cut-off for these calls is given here.
# Experiments:
# in vitro [1] = settings: human, liver microsomes
# Collagenase 3 = Collagenase 3 (Homo sapiens, UniProt P45452); test: Inhibition of human recombinant MMP13
# in vitro [2] = settings: rat, liver microsomes
# [3] = Metabolic stability in C57BL/6 mouse liver microsome assessed as half life; assay type: ADME; settings: liver microsomes
# Mus musculus [4] = test: Inhibition of human recombinant MMP12-induced ear-edema in C57BL/6 mouse assessed as decrease in ear edema at 10 mg/kg, po bid administered 2 hrs post challenge; assay type: functional; settings: C57BL/6, 2 h
# [5] = molecular target: Voltage-gated inwardly rectifying potassium channel KCNH2 (Homo sapiens, UniProt Q12809); test: Inhibition of human ERG at 10 uM by ion works assay
# Sequence of Voltage-gated inwardly rectifying potassium channel KCNH2 (Q12809 whole entry): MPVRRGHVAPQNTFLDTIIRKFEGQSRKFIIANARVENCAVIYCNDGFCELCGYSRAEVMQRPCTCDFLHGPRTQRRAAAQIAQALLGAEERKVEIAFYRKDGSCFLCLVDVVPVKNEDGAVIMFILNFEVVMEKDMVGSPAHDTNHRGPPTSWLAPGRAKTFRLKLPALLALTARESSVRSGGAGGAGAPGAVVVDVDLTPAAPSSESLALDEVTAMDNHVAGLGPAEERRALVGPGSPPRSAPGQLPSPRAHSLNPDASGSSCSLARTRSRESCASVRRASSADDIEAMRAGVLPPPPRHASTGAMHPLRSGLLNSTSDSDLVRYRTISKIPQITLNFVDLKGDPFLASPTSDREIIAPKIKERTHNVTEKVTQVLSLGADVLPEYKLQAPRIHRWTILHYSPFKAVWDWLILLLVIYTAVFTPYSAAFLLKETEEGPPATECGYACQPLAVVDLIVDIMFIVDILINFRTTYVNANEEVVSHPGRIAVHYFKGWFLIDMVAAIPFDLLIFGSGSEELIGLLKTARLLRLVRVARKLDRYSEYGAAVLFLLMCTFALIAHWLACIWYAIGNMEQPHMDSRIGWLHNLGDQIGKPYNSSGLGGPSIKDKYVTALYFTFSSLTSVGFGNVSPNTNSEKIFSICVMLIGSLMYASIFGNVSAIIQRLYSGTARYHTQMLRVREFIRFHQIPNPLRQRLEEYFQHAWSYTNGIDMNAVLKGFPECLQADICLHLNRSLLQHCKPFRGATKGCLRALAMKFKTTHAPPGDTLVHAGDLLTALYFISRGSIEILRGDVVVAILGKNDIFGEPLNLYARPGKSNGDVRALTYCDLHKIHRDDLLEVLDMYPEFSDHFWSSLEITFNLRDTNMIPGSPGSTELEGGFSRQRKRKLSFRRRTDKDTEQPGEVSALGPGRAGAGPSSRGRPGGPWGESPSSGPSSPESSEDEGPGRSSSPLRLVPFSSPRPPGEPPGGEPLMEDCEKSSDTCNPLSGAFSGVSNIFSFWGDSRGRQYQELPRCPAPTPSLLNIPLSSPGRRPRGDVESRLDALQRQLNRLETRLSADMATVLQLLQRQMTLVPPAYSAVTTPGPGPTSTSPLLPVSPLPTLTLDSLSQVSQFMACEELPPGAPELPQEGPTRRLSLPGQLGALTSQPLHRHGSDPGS
# Mus musculus [6] = test: Inhibition of human recombinant MMP12-induced ear-edema in C57BL/6 mouse assessed as decrease in ear edema at 3 mg/kg, po bid administered 2 hrs post challenge; assay type: functional; settings: C57BL/6, 2 h
# [7] = molecular target: Matrix metalloproteinase-14 (Homo sapiens, UniProt P50281); test: Inhibition of human MMP14
# [8] = molecular target: Matrix metalloproteinase-9 (Homo sapiens, UniProt P14780); test: Inhibition of human MMP9
# Sequence of Matrix metalloproteinase-9 (P14780 whole entry): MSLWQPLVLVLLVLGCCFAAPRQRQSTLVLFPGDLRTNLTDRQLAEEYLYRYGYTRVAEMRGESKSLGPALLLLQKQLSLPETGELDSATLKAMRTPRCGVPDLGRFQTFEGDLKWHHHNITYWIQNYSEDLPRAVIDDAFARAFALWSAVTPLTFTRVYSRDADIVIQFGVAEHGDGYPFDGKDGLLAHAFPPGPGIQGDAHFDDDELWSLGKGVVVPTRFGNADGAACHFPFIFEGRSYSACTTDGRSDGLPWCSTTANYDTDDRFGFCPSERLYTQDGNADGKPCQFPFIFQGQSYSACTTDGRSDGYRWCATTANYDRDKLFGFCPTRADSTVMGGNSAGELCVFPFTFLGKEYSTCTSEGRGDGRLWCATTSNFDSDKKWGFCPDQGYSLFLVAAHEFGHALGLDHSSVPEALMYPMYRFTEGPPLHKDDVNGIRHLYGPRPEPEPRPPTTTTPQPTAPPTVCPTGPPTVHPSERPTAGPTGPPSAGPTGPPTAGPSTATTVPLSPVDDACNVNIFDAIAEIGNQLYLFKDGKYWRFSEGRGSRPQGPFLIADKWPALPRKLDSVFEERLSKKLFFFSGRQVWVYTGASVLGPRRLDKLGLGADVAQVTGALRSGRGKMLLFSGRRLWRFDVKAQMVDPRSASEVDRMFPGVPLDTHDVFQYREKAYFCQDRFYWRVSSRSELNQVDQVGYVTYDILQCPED
# [9] = Oral bioavailability in C57BL/6 mouse at 10 mg/kg; assay type: ADME, organism-based; settings: in vivo
# Cytochrome P450 2D6 = Cytochrome P450 2D6 (Homo sapiens, UniProt P10635); test: Inhibition of CYP2D6; assay type: ADME
# Mus musculus [10] = test: Inhibition of human recombinant MMP12-induced ear-edema in C57BL/6 mouse assessed as decrease in ear edema at 30 mg/kg, po bid administered 2 hrs post challenge; assay type: functional; settings: C57BL/6, 2 h
# [11] = molecular target: Macrophage metalloelastase (Rattus norvegicus, UniProt Q63341); test: Inhibition of rat MMP12
# [12] = Volume of distribution at steady state in C57BL/6 mouse at 2 mg/kg, iv; assay type: ADME, organism-based; parameters: dose 2 mg/kg, route intravenous; settings: in vivo, read-out: Vdss
# [13] = molecular target: A disintegrin and metalloproteinase with thrombospondin motifs 5 (Homo sapiens, UniProt Q9UNA0); test: Inhibition of human Aggrecanase 2
# Sequence of A disintegrin and metalloproteinase with thrombospondin motifs 5 (Q9UNA0 whole entry): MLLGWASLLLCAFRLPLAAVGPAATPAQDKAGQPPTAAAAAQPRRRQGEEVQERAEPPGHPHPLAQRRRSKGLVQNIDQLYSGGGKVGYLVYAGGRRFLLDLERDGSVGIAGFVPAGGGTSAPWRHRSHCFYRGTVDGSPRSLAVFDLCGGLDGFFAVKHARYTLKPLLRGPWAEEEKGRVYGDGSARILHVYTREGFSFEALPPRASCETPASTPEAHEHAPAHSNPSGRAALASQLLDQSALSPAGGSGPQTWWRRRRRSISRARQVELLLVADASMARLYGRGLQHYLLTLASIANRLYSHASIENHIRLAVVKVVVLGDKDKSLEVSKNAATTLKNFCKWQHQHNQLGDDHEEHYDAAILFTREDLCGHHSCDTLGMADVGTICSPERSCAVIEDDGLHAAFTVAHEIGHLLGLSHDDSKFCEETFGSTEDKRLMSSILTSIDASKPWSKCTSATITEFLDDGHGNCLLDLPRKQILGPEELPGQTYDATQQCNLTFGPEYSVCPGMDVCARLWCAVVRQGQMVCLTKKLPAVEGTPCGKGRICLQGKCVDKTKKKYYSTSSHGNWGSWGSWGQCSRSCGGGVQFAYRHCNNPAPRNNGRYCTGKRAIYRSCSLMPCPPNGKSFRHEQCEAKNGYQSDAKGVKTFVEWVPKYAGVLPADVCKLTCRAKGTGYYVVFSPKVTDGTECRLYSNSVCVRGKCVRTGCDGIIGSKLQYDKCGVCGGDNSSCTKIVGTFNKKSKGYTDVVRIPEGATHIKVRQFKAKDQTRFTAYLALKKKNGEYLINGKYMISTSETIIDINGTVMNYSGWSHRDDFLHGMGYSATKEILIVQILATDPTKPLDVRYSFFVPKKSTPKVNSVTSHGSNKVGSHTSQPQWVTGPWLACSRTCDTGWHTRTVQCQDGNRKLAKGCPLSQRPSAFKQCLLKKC
# Ovis aries [14] = test: Inhibition of EAR phase of bronchoconstrictive in Ascaris suum challenged sheep asthma model at 10 mg/kg, po twice the day prior to allergen challenge and third dose 1 hr prior to allergen challenge; assay type: functional, organism-based; parameters: dose 10 mg/kg; settings: Lung
# Interstitial collagenase = Interstitial collagenase (Homo sapiens, UniProt P03956); test: Inhibition of human MMP1
# Sequence of Interstitial collagenase (P03956 whole entry): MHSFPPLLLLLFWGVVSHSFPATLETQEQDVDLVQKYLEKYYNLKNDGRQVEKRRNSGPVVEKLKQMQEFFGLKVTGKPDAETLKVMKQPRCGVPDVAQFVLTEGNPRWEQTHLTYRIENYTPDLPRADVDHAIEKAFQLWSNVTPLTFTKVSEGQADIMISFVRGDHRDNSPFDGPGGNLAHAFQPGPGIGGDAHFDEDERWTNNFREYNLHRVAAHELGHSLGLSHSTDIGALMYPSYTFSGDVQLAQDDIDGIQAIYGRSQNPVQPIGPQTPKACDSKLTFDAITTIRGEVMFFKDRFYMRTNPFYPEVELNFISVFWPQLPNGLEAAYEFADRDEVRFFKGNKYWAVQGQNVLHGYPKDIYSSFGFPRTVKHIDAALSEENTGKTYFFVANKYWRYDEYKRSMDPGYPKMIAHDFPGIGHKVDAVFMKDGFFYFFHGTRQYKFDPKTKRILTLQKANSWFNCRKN
# Cytochrome P450 3A4 = Cytochrome P450 3A4 (Homo sapiens, UniProt P08684); test: Inhibition of CYP3A4; assay type: ADME
# Sequence of Cytochrome P450 3A4 (P08684 whole entry): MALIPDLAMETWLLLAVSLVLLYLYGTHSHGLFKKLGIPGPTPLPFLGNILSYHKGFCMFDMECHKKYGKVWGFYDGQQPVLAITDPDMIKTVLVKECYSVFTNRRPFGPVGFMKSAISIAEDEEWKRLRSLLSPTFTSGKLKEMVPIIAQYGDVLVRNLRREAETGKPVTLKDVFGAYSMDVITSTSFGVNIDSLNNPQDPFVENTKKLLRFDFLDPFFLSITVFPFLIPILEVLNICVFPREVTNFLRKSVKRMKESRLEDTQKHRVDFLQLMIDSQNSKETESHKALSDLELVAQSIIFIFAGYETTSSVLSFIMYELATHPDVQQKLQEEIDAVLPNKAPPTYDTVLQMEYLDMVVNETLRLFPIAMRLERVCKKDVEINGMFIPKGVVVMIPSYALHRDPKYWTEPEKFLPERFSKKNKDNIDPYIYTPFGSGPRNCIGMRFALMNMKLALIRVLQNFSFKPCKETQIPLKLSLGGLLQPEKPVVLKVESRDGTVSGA
# Ovis aries [15] = test: Inhibition of carbachol-induced airway hyper-responsiveness in Ascaris suum challenged sheep asthma model at 10 mg/kg, po; assay type: functional, organism-based; parameters: dose 10 mg/kg
# [16] = molecular target: 72 kDa type IV collagenase (Homo sapiens, UniProt P08253); test: Inhibition of human MMP2
# [17] = Clearance in C57BL/6 mouse at 2 mg/kg, iv; assay type: ADME, organism-based; parameters: dose 2 mg/kg, route intravenous; settings: in vivo
# [18] = Half life in C57BL/6 mouse at 10 mg/kg, po; assay type: ADME, organism-based; parameters: dose 10 mg/kg, route oral; settings: in vivo
# [19] = molecular target: Macrophage metalloelastase (Mus musculus, UniProt P34960); test: Inhibition of mouse MMP12
# Sequence of Macrophage metalloelastase (Mus musculus, UniProt P34960) (P34960 whole entry): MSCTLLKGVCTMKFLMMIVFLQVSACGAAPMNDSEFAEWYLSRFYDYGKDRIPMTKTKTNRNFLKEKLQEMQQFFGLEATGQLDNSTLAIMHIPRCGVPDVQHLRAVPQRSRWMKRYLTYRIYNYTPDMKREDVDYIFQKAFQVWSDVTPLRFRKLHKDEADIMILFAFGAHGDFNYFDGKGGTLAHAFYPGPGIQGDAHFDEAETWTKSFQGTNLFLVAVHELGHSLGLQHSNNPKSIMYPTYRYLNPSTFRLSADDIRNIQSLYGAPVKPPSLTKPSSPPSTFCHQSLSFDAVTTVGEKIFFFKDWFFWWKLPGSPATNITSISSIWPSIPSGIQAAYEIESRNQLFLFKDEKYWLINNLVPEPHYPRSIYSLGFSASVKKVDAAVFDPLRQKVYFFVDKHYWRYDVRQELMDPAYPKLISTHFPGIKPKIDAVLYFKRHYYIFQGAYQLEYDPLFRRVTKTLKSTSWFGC
# Matrilysin = Matrilysin (Homo sapiens, UniProt P09237); test: Inhibition of human MMP7
# Sequence of Matrilysin (P09237 whole entry): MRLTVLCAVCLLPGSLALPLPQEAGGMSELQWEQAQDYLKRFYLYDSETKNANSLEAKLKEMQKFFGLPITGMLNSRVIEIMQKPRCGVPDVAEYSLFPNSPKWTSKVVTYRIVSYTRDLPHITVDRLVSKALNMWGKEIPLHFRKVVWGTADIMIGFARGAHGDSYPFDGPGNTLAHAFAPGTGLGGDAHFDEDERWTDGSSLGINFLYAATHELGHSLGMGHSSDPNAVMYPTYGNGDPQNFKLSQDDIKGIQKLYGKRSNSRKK
# Neutrophil collagenase = Neutrophil collagenase (Homo sapiens, UniProt P22894); test: Inhibition of human MMP8
# Cytochrome P450 2C9 = Cytochrome P450 2C9 (Homo sapiens, UniProt P11712); test: Inhibition of CYP2C9; assay type: ADME
# [20] = molecular target: Disintegrin and metalloproteinase domain-containing protein 17 (Homo sapiens, UniProt P78536); test: Inhibition of human TACE
# Stromelysin-1 = Stromelysin-1 (Homo sapiens, UniProt P08254); test: Inhibition of human MMP3
# Sequence of Stromelysin-1 (P08254 whole entry): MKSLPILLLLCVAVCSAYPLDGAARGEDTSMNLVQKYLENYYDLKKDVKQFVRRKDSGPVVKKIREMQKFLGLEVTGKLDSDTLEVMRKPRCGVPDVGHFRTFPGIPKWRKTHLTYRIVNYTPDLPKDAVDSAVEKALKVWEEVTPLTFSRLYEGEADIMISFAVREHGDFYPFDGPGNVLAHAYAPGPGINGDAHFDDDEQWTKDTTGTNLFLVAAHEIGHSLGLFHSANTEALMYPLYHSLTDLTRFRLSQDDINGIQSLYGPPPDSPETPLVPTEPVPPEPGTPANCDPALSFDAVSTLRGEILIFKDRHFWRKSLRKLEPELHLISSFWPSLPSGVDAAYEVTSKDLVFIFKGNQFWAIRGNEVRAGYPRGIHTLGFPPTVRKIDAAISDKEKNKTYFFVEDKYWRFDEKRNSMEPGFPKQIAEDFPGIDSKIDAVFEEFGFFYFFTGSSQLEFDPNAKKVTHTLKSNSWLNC
# [21] = Cmax in C57BL/6 mouse at 10 mg/kg, po; assay type: ADME, organism-based; parameters: dose 10 mg/kg, route oral; settings: in vivo
# [22] = Inhibition of sheep MMP12; parameters: species or system Ovis aries
# [23] = molecular target: A disintegrin and metalloproteinase with thrombospondin motifs 4 (Homo sapiens, UniProt O75173); test: Inhibition of human Aggrecanase 1
smiles,measurement,setting,value
CC(C)[C@H](NS(=O)(=O)c1ccc2c(c1)oc1cc(N3CCOC3=O)ccc12)C(=O)O,half-life,in vitro [1],> 30 min
same,IC50,Collagenase 3,370 nM
same,half-life,in vitro [2],> 30 min
same,half-life,[3],> 30 min
CC(C)[C@H](NS(=O)(=O)c1ccc2c(c1)sc1ccc(NS(C)(=O)=O)cc12)C(=O)O,IC50,Collagenase 3,1140 nM
CC(C)[C@@H](NS(=O)(=O)c1ccc2c(c1)sc1ccc(NS(C)(=O)=O)cc12)C(=O)O,IC50,Collagenase 3,277 nM
CCOC(=O)Nc1ccc2oc3cc(S(=O)(=O)N[C@H](C(=O)O)C(C)C)ccc3c2c1,half-life,in vitro [1],> 30 min
same,half-life,in vitro [2],> 30 min
same,half-life,[3],> 30 min
CC(C)[C@H](NS(=O)(=O)c1ccc2c(c1)sc1cc(NC(=O)Oc3ccc(F)cc3)ccc12)C(=O)O,half-life,in vitro [1],> 30 min
same,IC50,Collagenase 3,217 nM
same,half-life,in vitro [2],> 30 min
same,half-life,[3],> 30 min
COC(=O)Nc1ccc2c(c1)oc1cc(S(=O)(=O)N[C@@H](C(=O)O)C(C)C)ccc12,half-life,in vitro [1],> 30 min
same,IC50,Collagenase 3,215 nM
same,half-life,in vitro [2],> 30 min
same,half-life,[3],> 30 min
CCOC(=O)Nc1ccc2c(c1)sc1cc(S(=O)(=O)N[C@H](C(=O)O)C(C)C)ccc12,half-life,in vitro [1],> 30 min
same,IC50,Collagenase 3,56 nM
same,half-life,in vitro [2],> 30 min
same,half-life,[3],> 30 min
CCOC(=O)Nc1ccc2c(c1)sc1cc(S(=O)(=O)N[C@@H](C(=O)O)C(C)C)ccc12,half-life,in vitro [1],> 30 min
same,half-life,in vitro [2],> 30 min
same,half-life,[3],> 30 min
CC(C)[C@@H](NS(=O)(=O)c1ccc2sc3ccccc3c2c1)C(=O)O,IC50,Collagenase 3,13800 nM
CC(C)[C@H](NS(=O)(=O)c1ccc2sc3ccccc3c2c1)C(=O)O,IC50,Collagenase 3,60000 nM
CC(C)[C@H](NS(=O)(=O)c1ccc2c(c1)sc1cc(NC(=O)OCCS(C)(=O)=O)ccc12)C(=O)O,half-life,in vitro [1],> 30 min
same,IC50,Collagenase 3,40 nM
same,half-life,in vitro [2],> 30 min
same,half-life,[3],> 30 min
C#CCCOC(=O)Nc1ccc2c(c1)sc1cc(S(=O)(=O)N[C@H](C(=O)O)C(C)C)ccc12,half-life,in vitro [1],> 30 min
same,IC50,Collagenase 3,23 nM
same,half-life,in vitro [2],> 30 min
same,half-life,[3],> 30 min
COC(=O)Nc1ccc2c(c1)sc1ccc(S(=O)(=O)N[C@H](C(=O)O)C(C)C)cc12,half-life,in vitro [1],> 30 min
same,IC50,Collagenase 3,> 25000 nM
same,half-life,in vitro [2],> 30 min
same,half-life,[3],> 30 min
CC(C)[C@H](NS(=O)(=O)c1ccc2sc3cc(NS(C)(=O)=O)ccc3c2c1)C(=O)O,IC50,Collagenase 3,> 25000 nM
COC(=O)Nc1ccc2c(c1)sc1ccc(S(=O)(=O)N[C@@H](C(=O)O)C(C)C)cc12,half-life,in vitro [1],> 30 min
same,IC50,Collagenase 3,> 25000 nM
same,half-life,in vitro [2],> 30 min
same,half-life,[3],> 30 min
CC(C)[C@H](NS(=O)(=O)c1ccc2c(c1)oc1cc(N)ccc12)C(=O)O,half-life,in vitro [1],> 30 min
same,IC50,Collagenase 3,1090 nM
same,half-life,in vitro [2],> 30 min
same,half-life,[3],> 30 min
CC(C)[C@H](NS(=O)(=O)c1ccc2c(c1)oc1ccc(N3CCOC3=O)cc12)C(=O)O,inhibition in vivo at 10 mg/kg,Mus musculus [4],35.1%
same,inhibition (INH),[5],Not Active
same,inhibition in vivo at 3 mg/kg,Mus musculus [6],25.2%
same,IC50,[7],2250 nM
same,half-life,in vitro [1],> 30 min
same,IC50,[8],318 nM
same,bioavailability,[9],17%
same,inhibition (INH),Cytochrome P450 2D6,Not Active
same,inhibition in vivo at 30 mg/kg,Mus musculus [10],40.3%
same,IC50,[11],72 nM
same,Vd,[12],0.8 L/kg
same,IC50,[13],22600 nM
same,IC50,Collagenase 3,106 nM
same,inhibition,Ovis aries [14],Active
same,IC50,Interstitial collagenase,5460 nM
same,inhibition (INH),Cytochrome P450 3A4,Not Active
same,inhibition,Ovis aries [15],Active
same,IC50,[16],66 nM
same,clearance,[17],18 mL/min/kg
same,half-life,[18],186 min
same,IC50,[19],27 nM
same,IC50,Matrilysin,7830 nM
same,IC50,Neutrophil collagenase,37 nM
same,half-life,in vitro [2],> 30 min
same,inhibition (INH),Cytochrome P450 2C9,Not Active
same,IC50,[20],40000 nM
same,IC50,Stromelysin-1,300 nM
same,Cmax,[21],456 ng/mL
same,IC50,[22],2 nM
same,IC50,[23],18000 nM
same,half-life,[3],> 30 min
CC(C)[C@H](NS(=O)(=O)c1ccc2c(c1)sc1cc(NC(=O)Oc3ccccc3)ccc12)C(=O)O,half-life,in vitro [1],> 30 min
same,IC50,Collagenase 3,225 nM
same,half-life,in vitro [2],> 30 min
same,half-life,[3],> 30 min
CC(C)[C@H](NS(=O)(=O)c1ccc2c(c1)sc1cc(NC(=O)NCc3ccccc3)ccc12)C(=O)O,half-life,in vitro [1],> 30 min
same,IC50,Collagenase 3,200 nM
same,half-life,in vitro [2],> 30 min
same,half-life,[3],> 30 min

# From ChEMBL document CHEMBL1152446, “Identification of an orally efficacious matrix metalloprotease 12 inhibitor for potential treatment of asthma” (J Med Chem, 2009)
